Calls of active or inactive are those of the source.

The target of series [1] is T1, Sodium channel protein type 9 subunit alpha (Homo sapiens, UniProt Q15858). Nature of the series: Inhibition of human Nav1.7 expressed in HEK293 cells after 600 secs at -60 mV holding potential by ion works barracuda population patch clamp method. In kind it is cell-based. On the technique in general: The patch-clamp technique gives a direct electrical read-out from membranes.
Target sequence in this assay (Q15858 whole entry): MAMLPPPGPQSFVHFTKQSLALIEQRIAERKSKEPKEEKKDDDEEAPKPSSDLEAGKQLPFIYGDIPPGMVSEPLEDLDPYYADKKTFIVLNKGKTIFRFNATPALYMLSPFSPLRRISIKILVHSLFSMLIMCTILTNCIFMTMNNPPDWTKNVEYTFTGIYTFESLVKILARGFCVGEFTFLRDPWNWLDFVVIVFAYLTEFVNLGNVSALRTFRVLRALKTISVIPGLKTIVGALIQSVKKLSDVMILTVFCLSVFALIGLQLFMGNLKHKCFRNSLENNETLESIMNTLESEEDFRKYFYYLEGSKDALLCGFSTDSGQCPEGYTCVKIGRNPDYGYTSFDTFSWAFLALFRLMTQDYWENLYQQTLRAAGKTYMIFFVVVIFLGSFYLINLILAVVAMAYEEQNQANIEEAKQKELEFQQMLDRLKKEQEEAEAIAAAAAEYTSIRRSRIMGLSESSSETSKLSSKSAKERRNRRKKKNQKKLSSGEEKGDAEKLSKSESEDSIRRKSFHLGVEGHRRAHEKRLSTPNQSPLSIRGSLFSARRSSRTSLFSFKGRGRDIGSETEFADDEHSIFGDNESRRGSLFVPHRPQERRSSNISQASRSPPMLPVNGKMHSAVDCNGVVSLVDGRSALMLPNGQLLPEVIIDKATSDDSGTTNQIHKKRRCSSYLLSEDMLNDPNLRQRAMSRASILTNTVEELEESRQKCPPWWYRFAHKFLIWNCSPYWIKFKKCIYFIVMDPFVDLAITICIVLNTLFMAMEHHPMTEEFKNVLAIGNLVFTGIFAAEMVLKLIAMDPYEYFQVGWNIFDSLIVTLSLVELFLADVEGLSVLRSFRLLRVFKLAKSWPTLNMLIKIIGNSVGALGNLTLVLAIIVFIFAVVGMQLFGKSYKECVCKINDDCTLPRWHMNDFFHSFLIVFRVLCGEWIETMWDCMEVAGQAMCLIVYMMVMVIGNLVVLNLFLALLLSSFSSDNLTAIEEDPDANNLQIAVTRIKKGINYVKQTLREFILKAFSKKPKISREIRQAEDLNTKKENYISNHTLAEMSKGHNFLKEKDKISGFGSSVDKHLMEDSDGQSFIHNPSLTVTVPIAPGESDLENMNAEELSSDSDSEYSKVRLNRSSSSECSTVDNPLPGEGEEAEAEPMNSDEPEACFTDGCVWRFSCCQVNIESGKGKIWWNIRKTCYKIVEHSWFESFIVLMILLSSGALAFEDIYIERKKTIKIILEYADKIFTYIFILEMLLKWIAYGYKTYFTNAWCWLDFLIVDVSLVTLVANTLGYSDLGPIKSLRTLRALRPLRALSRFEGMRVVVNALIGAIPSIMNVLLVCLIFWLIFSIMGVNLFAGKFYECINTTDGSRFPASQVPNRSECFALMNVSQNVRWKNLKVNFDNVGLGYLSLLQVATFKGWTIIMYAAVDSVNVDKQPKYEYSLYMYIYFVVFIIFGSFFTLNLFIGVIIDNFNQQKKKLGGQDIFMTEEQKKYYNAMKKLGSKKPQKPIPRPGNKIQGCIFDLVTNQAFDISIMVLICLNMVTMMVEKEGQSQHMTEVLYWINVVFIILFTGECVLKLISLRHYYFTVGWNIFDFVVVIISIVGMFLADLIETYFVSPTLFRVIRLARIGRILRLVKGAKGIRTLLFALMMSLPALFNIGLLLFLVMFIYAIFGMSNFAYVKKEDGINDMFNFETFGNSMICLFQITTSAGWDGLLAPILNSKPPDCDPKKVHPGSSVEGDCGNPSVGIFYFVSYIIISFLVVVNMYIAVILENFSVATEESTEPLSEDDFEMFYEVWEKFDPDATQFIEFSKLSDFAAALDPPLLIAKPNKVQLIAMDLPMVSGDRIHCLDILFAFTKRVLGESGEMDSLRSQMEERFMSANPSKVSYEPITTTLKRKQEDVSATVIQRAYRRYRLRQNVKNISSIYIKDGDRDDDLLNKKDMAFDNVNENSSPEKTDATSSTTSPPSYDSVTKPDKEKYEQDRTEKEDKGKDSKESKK

The target of series [2] is T2, Cytochrome P450 2D6 (Homo sapiens, UniProt P10635). Nature of the series: Time-dependant inhibition of CYP2D6 in human liver microsomes. In kind it is ADME. A general note: Liver microsomes are a subcellular fraction often used to study metabolism.
T2 sequence (P10635 whole entry): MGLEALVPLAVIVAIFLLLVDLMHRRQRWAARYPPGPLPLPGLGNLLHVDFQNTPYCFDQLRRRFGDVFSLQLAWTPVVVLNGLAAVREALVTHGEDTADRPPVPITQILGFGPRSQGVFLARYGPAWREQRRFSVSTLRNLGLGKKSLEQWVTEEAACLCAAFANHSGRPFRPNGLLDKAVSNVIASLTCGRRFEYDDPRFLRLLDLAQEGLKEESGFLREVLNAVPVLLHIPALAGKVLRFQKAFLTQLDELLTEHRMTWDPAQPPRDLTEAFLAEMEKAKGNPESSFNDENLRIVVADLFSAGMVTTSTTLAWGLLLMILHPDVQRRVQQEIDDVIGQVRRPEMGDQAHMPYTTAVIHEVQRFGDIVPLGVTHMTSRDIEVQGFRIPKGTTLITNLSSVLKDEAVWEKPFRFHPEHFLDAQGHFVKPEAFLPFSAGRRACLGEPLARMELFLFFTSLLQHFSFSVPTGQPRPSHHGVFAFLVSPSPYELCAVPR
Series [3] has as its target T3, Cytochrome P450 2B6 (Homo sapiens, UniProt P20813).
T3 sequence (P20813 whole entry): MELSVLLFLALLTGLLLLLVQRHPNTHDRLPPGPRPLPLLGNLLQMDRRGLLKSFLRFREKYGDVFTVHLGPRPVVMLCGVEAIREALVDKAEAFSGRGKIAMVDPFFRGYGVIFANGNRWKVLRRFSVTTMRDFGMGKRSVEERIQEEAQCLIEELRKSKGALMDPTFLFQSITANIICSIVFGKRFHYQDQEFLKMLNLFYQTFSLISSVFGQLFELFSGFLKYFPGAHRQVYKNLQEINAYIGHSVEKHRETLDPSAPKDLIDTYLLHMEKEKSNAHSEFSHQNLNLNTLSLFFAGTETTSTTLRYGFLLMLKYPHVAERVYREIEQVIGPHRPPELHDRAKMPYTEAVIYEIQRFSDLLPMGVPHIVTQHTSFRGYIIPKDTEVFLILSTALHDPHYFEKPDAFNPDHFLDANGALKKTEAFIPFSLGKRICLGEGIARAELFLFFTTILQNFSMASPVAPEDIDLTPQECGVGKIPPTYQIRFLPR
Nature of the series: Inhibition of CYP2B6 in human liver microsomes. In kind it is ADME.

A short description of series [4]: Fraction unbound in mouse trigeminal ganglia neuron tissue. In kind it is ADME, tissue-based, Trigeminal ganglion.
The target of series [5] is T2, Cytochrome P450 2D6. The experiment in a line: Inhibition of CYP2D6 in human liver microsomes. In kind it is ADME.
Series [6] can be described thus: Plasma concentration in CD1 mouse model of chronic constriction injury-induced cold allodynia at 30 mg/kg, ip dosed at 5 weeks post surgery and measured 60 mins post dose. The class given is ADME, organism-based.
The nature of series [7]: Unbound plasma concentration in CD1 mouse model of chronic constriction injury-induced cold allodynia at 3 mg/kg, ip dosed at 5 weeks post surgery and measured 60 mins post dose. In kind it is ADME, organism-based. The following applies: in vivo, 1 h.
Series [8] is described as follows: Toxicity in CD1 mouse model of formalin-induced nociception assessed as prostration or sedation at 30 mg/kg, ip. The class given is organism-based. The following applies: in vivo.
In series [9] the test system is Mus musculus. Nature of the series: Analgesic activity in CD1 mouse model of formalin-induced nociception assessed as reduction in formalin-evoked paw flinching/licking response during first phase at 30 mg/kg, ip pretreated for 30 mins followed by formalin treatment and measured during first 5 mins post formalin injection. In kind it is functional, organism-based.

Series [10] has as its system Mus musculus. The experiment in a line: Analgesic activity in CD1 mouse model of formalin-induced nociception assessed as reduction in formalin-evoked paw flinching/licking response during second phase at 3 to 10 mg/kg, ip pretreated for 30 mins followed by formalin treatment and measured during 15 to 45 mins post formalin injection. In kind it is functional, organism-based.

The nature of series [11]: Fraction unbound in mouse plasma. In kind it is ADME, cell-free.
Series [12] concerns Mus musculus. Nature of the series: Effect on thermal response latency in contralateral paw in CD1 mouse model of CFA-induced thermal hyperalgesia at 30 mg/kg, ip administered 72 hrs post CFA challenge and measured at 60 mins post dose by Hargreave's test. In kind it is organism-based. The following applies: in vivo, 1 h.
Series [13] in a line: Toxicity in CD1 mouse model of formalin-induced nociception assessed as hypothermia at 30 mg/kg, ip. The class given is organism-based. The following applies: in vivo.
Series [14] concerns Mus musculus. Nature of the series: Antinociceptive activity in CD1 mouse model of chronic constriction injury-induced cold allodynia assessed as increase in latency in response to cold at 30 mg/kg, ip dosed 30 mins before testing starting at 5 weeks after surgery relative to control. The class given is functional.
For a further series, the target named is Cytochrome P450 2C9 (Homo sapiens, UniProt P11712). Nature of the series: Inhibition of CYP2C9 in human liver microsomes. In kind it is ADME.
Cytochrome P450 2C9, sequence (P11712 whole entry): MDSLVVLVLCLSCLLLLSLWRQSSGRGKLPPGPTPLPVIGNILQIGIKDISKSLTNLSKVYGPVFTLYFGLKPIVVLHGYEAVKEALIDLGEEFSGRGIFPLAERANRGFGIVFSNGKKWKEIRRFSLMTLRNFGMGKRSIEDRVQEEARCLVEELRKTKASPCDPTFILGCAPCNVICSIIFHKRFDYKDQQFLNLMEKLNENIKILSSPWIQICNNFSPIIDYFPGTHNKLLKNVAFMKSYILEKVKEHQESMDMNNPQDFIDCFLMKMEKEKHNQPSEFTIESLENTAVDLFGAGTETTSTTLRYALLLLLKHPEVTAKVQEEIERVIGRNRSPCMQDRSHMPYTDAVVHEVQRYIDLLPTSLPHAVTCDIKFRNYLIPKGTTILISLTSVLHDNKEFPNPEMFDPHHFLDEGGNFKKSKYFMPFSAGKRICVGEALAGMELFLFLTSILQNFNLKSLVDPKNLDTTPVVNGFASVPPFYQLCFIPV
Series [15] deals with Sodium channel protein type 3 subunit alpha (Homo sapiens, UniProt Q9NY46). The experiment in a line: Inhibition of human Nav1.3 expressed in HEK293 cells after 600 secs at -60 mV holding potential by ion works barracuda population patch clamp method. In kind it is cell-based.
The nature of series [16]: Unbound drug level in DRG neurons of CD1 mouse model of formalin-induced nociception at 30 mg/kg, ip. In kind it is ADME, organism-based, DRG neuron. The following applies: in vivo.
Series [17] is described as follows: Drug uptake in DRG neurons of CD1 mouse model of formalin-induced nociception at 30 mg/kg, ip. To be noted: in vivo, read-out: Drug uptake. In kind it is ADME, organism-based, DRG neuron.
For series [18], the target named is T1, Sodium channel protein type 9 subunit alpha. Nature of the series: Inhibition of recombinant human Nav1.7 expressed in HEK293 cells assessed as dissociation time constant at -120 mV holding potential by patch clamp electrophysiology method. In kind it is cell-based.
Target sequence in this assay (Q15858 whole entry, looked up): as the sequence (Q15858 whole entry) above
A short description of series [19]: Plasma concentration in CD1 mouse model of formalin-induced nociception at 30 mg/kg, ip. The class given is ADME, organism-based. The following applies: read-out: Cp, in vivo.
Another series has as its target Cytochrome P450 2C19 (Homo sapiens, UniProt P33261). The experiment in a line: Time-dependant inhibition of CYP2C19 in human liver microsomes. The class given is ADME.
Series [20] is described as follows: Plasma concentration in CD1 mouse model of chronic constriction injury-induced cold allodynia at 10 mg/kg, ip dosed at 5 weeks post surgery and measured 60 mins post dose. The class given is ADME, organism-based.
For series [21], the target named is T3, Cytochrome P450 2B6. Nature of the series: Time-dependant inhibition of CYP2B6 in human liver microsomes. In kind it is ADME.
Series [22] has as its system Mus musculus. Nature of the series: Analgesic activity in CD1 mouse model of formalin-induced nociception assessed as reduction in formalin-evoked paw flinching/licking response during second phase at 30 mg/kg, ip pretreated for 30 mins followed by formalin treatment and measured during 15 to 45 mins post formalin injection. In kind it is functional, organism-based.

Series [23] concerns Mus musculus. Nature of the series: Analgesic activity in CD1 mouse model of formalin-induced nociception assessed as reduction in formalin-evoked paw flinching/licking response during first phase at 3 to 10 mg/kg, ip pretreated for 30 mins followed by formalin treatment and measured during first 5 mins post formalin injection. In kind it is functional, organism-based.
The target of a further series is Cytochrome P450 3A4 (Homo sapiens, UniProt P08684). The experiment in a line: Time-dependant inhibition of CYP3A4 in human liver microsomes. In kind it is ADME.
Cytochrome P450 3A4, sequence (P08684 whole entry): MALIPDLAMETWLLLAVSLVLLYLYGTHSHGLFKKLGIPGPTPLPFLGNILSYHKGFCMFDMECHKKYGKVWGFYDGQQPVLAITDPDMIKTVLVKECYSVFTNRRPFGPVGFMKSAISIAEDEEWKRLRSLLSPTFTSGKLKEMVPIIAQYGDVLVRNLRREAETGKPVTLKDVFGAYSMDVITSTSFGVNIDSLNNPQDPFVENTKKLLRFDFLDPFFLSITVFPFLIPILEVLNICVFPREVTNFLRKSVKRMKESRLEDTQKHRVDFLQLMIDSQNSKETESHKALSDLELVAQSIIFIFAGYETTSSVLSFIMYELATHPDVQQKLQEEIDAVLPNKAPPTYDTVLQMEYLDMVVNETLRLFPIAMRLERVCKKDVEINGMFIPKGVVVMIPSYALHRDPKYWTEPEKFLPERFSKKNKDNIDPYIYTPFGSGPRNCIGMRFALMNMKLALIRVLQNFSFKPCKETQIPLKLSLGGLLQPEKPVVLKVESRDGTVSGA
Series [24] in a line: Unbound plasma concentration in CD1 mouse model of CFA-induced thermal hyperalgesia at 3 to 30 mg/kg, ip. In kind it is ADME, organism-based. The following applies: in vivo.
Series [25] can be described thus: Permeability of the compound at pH 5.5 by PAMPA. To be noted: read-out: permeability. In kind it is ADME.
Series [26] is filed under the species Mus musculus. The experiment in a line: Reduction in mechanoreceptor-mediated afferent transmission in mouse sural nerve assessed as decrease in mechanically elicited afferent firing at 30 to 100 uM measured at 20 mins post dose at 1.6 to 980 mN threshold pressure. In kind it is functional, tissue-based.
Series [27] has as its system Mus musculus. The experiment in a line: Analgesic activity in CD1 mouse model of formalin-induced nociception assessed as reduction in formalin-evoked paw flinching/licking response during second phase at 30 mg/kg, po pretreated for 30 mins followed by formalin treatment and measured during 15 to 45 mins post formalin injection. In kind it is functional, organism-based.

For series [28], the system named is Mus musculus. The experiment in a line: Analgesic activity in CD1 mouse model of formalin-induced nociception assessed as reduction in formalin-evoked paw flinching/licking response during first phase at 30 mg/kg, po pretreated for 30 mins followed by formalin treatment and measured during first 5 mins post formalin injection. In kind it is functional, organism-based.

Series [29] can be described thus: Fraction unbound in rat DRG neurons. In kind it is ADME.
Series [30] in a line: Unbound plasma concentration in CD1 mouse model of formalin-induced nociception at 30 mg/kg, po. The class given is ADME, organism-based. To be noted: in vivo.
Series [31] in a line: Fraction unbound in rat trigeminal ganglia neuron tissue. The class given is ADME, tissue-based, Trigeminal ganglion.
A short description of series [32]: Plasma concentration in CD1 mouse model of formalin-induced nociception at 30 mg/kg, po. The class given is ADME, organism-based. To be noted: read-out: Cp, in vivo.

Cytochrome P450 2C19, sequence (P33261 whole entry): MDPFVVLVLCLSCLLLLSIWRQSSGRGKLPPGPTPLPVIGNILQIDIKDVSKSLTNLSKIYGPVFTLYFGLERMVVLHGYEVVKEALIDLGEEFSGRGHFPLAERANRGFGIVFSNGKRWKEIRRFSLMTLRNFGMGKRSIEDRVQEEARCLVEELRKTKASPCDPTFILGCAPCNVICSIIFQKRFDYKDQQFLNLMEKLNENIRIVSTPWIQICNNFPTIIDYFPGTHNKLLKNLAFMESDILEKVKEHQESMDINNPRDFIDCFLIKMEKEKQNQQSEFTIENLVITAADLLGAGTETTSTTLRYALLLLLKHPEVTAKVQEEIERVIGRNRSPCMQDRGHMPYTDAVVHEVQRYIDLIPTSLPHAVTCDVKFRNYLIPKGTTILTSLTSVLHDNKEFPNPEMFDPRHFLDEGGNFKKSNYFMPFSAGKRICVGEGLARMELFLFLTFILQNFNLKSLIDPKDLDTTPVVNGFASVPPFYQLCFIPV

As for `CC(C)COc1ncc(-c2cn(C)c3cc(C(=O)NS(C)(=O)=O)ccc23)cc1Cl`, the IC50 in [1] was 108 nM; against Cytochrome P450 2B6 [3], 9.7 µM; against Cytochrome P450 2D6 [5], > 40 µM; at Cytochrome P450 2C9 it was 9.9 µM; in series [15], > 30 µM. For the same compound, the TDI entry at Cytochrome P450 2D6 [2], at Cytochrome P450 2C19, at Cytochrome P450 2B6 [21] and on Cytochrome P450 3A4 was “Not Active” in each case. For the same compound, the fraction unbound in series [4] turned out to be 0.035; in [11] it was 0.002. Also, the concentration at 1 h in series [6] turned out to be 68 µM; in [20] it was 27 µM. The “Cp(f)” value in [7] is 6.6 nM; in [24], 126 nM. The Activity entry in [8] is reported as “Non-Toxic”; in the series on Mus musculus [12], “Non-Toxic”; in [13], “Non-Toxic”; with Mus musculus [14] it was 25%. Further, the outcome in the series with Mus musculus [9], with Mus musculus [10] and in the series on Mus musculus [23] was inactive. Further, in [16], the “Drug uptake(free)” value came out at 95 nM. The concentration came to 2720 nM in series [17] and 59 µM in series [19]. For the same compound, in series [18], the TIME worked out at 0.0125 h. The outcome in the series on Mus musculus [22] was Active. Further, the Papp in [25] was found to be 44.3 ×10⁻⁶ cm/s.
For `CC(C)COc1ccc(-c2cn(C)c3cc(C(=O)NS(C)(=O)=O)c(F)cc23)cn1`, the result in the series listed under Mus musculus [26], with Mus musculus [27] and with Mus musculus [28] was inactive. Besides, the IC50 is 89 nM in [1], > 40 µM at Cytochrome P450 2B6 [3], > 40 µM against Cytochrome P450 2D6 [5] and 27 µM on Cytochrome P450 2C9. Moreover, the TDI result on Cytochrome P450 2D6 [2], at Cytochrome P450 2C19, on Cytochrome P450 2B6 [21] and on Cytochrome P450 3A4 was “Not Active” throughout. The fraction unbound was 0.069 in [4], 0.014 in series [11], 0.039 in series [29] and 0.045 in series [31]. In [18], the TIME came out at 0.0275 h. The “Cp(f)” value in series [30] was determined as 616 nM; in series [24] it was 532 nM. In addition, the concentration in series [32] was 44 µM. In addition, the Papp in [25] amounted to 80.2 ×10⁻⁶ cm/s.

As usually defined, the IC50 is the concentration needed to halve the response being measured. Lower therefore signals inhibition by little substance. In general, fraction unbound refers to the share of the substance not bound to proteins or other matrix.
